Results taken from patent US6399745B1, “Use of leptin antagonists for treating insulin resistance in type II diabetes” (Aventis Pharma Deutschland GmbH, priority 1996, dated 2002).

What was measured:
[1] = system: isolated rat adipocytes; assay: Lipogenesis (incorporation of D-glucose into toluene-extractable lipids) in isolated rat adipocytes after primary culture with leptin; format: cell-based; conditions: for Lipogenesis, stimulation factor for insulin (stimulated/basal): Insulin concentration: 5 nM
Protocol: Adipocytes were prepared from the epididymal fat tissue of male Wistar rats (140-160 g, Hoechst AG breeding station, Kastengrund) by means of digesting with collagenase (Rodbell, 1964, J. Biol. Chem. 239, 375-380), washed twice with KRH (25 mM Hepes free acid, 25 mM Hepes sodium salt, 80 mM NaCl, 1 mM MgSO4, 2 mM CaCl2, 6 mM KCl, 1 mM sodium pyruvate, 0.5% BSA) and once with DMEM (Dulbecco's minimal essential medium), supplemented with 5.5 mM glucose, 20 mM Hepes (pH 7.4), 2% fetal calf serum, 1% BSA, 50 U of penicillin/ml, […], by means of flotation (800×g, 1 min, in small plastic tubes), and finally diluted to a volume of 20 ml of DMEM/g wet weight of the fat tissue (cell titer: approximately 2.5×10^5 cells/ml). The adipocytes were incubated, at 37° C. for 15-18 h under an atmosphere of 5% CO2 and with gentle shaking, in supplemented (see above) DMEM in the presence of 100 nM phenylisopropyladenosine (4 ml of DMEM to 1 ml of cells, cell titer approximately 5×10^4 cell/ml, in 50 ml sterile polypropylene: tubes) and in the presence or absence of leptin. The adipocytes were subsequently washed three times with cold KRH and adjusted to a cell titer of approximately 3×10^5 cells/ml by adding 0.7 ml of glucose-free KRH to the cell layer which remained after the complete removal of the last washing solution. In order to determine the capacity of the adipocytes to be stimulated by insulin, and their sensitivity to insulin, following the primary culture, the washed adipocytes were incubated at 37° C. for 20 min in the absence or presence of human insulin (0.02-50 nM final concentration), and glucose transport or lipogenesis was then measured. Lipogenesis was measured as the incorporation of D-glucose into toluene-extractable lipids (Moody et al., 1974, Horm. Metab. Res. 6, 12-16). 200 μl of the adipocyte suspension in KRH were incubated in scintillation vials, at 37° C. for 20 min, in 680 μl of KRH which was supplemented with 3.5 mM glucose and 20 μl of insulin solution. Lipogenesis was started by adding 100 μl of D-[3-^3H]glucose (25 μCi/ml KRH). After incubating at 37° C., and gently shaking under an atmosphere of 5% CO2, for 90 min, 10 ml of scintillation fluid (toluene-based) were added and the radioactivity in the toluene phase was determined after shaking vigorously and subsequent phase separation (at least 4 h of incubation). The radioactivity of the lipids in the toluene phase was corrected for the radioactivity of an incubation mixture which contained the same quantity of [^3H]glucose but no cells. Isolated rat adipocytes were incubated for 15 h in primary culture in the presence or absence of increasing concentrations of leptin. The cells were then washed and tested for glucose transport and lipogenesis in the basal and insulin (10 nM)-stimulated states. The stimulation factor for insulin was calculated as the ratio between insulin-stimulated and basal activities. Each value represents the mean from two independent adipocyte cultures with activity being determined two or three times in each case.

[2] = system: isolated rat adipocytes; assay: Insulin stimulation of glycogenesis in isolated rat adipocytes under leptin; format: cell-based; conditions: basal values unaffected
[3] = system: ob/ob mice; conditions: injection; cited from earlier work
[4] = system: insulin receptor and insulin receptor substrate 1 (IRS-1); conditions: rat 1 fibroblasts overexpressing human insulin receptor; cited from earlier work
[5] = system: C2C12 mouse myotubes; conditions: cited from earlier work

Substance	Lipogenesis, stimulation factor for insulin (stimulated/basal) ([1]; no leptin)	Lipogenesis, stimulation factor for insulin (stimulated/basal) ([1]; leptin 0.3 nM 15 h)	Lipogenesis, stimulation factor for insulin (stimulated/basal) ([1]; leptin 1 nM 15 h)	Lipogenesis, stimulation factor for insulin (stimulated/basal) ([1]; leptin 3 nM 15 h)	Lipogenesis, stimulation factor for insulin (stimulated/basal) ([1]; leptin 10 nM 15 h)	Lipogenesis, stimulation factor for insulin (stimulated/basal) ([1]; leptin 30 nM 15 h)	Lipogenesis, stimulation factor for insulin (stimulated/basal) ([1]; leptin 100 nM 15 h)	insulin sensitivity of stimulation of lipogenesis ([1]; leptin, basal values unaffected)	insulin sensitivity of stimulation of glycogenesis [2]	nutrient intake [3]	weight [3]	insulin-induced phosphorylation of the insulin receptor and of IRS-1 [4]	glucose transport [5]	glycogen synthesis [5]
Insulin: human insulin used to stimulate adipocytes [reference compound]	3.9	–	–	–	–	–	–	–	–	–	–	–	–	–
Leptin	–	3.9	3.2	2.15	1.5	1.15	1.05	drastically reduced	drastically reduced	reduction in nutrient intake	decrease in weight	decreases	stimulated	stimulated
